Assay results published in paper PMC11623267, “Inhibitors of malaria parasite cyclic nucleotide phosphodiesterases block asexual blood-stage development and mosquito transmission” (Science Advances, 2024).
Like-named read-outs stand apart in the source and are kept apart here.

Experiments:
[1] = test system: PDE activity in cell extracts of malaria parasites; set-up: method as in PMID 16038615, PMID 25951195; conditions: read-out: IC50 against PDE activity in cell extracts; cited from earlier work
[2] = test system: P. falciparum (clone 3D7); test: Parasite reduction ratio (PRR) assay; format: cell-based, Plasmodium falciparum; conditions: for Slope: 10× EC50, 3D7 killing profile
Procedure: The in vitro killing profile of compounds was determined by monitoring the ability of parasites to recover following treatment with a compound of interest using a previously reported approach ([50]), which allowed calculation of the PRR ([51]). […] To quantify the number of viable parasites following treatment, four independent sets of threefold serial dilutions were performed on each sample, which were assayed for the presence or absence of parasites after 28 days using the LDH assay, and the number of viable parasites was determined by the number of wells showing growth. PRR and PCT99.9% were calculated as previously reported ([50]).

[3] = test system: P. falciparum clinical isolates from Porto Velho, Brazil; test: Ex vivo schizont maturation assay, Brazilian clinical isolates; format: cell-based, Plasmodium falciparum; conditions: Plasmodium falciparum
Procedure: Only monoinfected patients with P. falciparum with parasitemia between 2000 and 80,000 parasites/μl and with at least 70% of ring-stage parasites were recruited. Patients who had used an antimalarial in the previous month and/or presented with symptoms of severe malaria were excluded from the study. The study cohort comprised 24 patients living in this highly endemic area. A peripheral venous blood sample (5 ml) was collected from each individual by venipuncture in heparin-containing tubes and immediately used in the ex vivo drug susceptibility assay using preprepared plates containing diluted antimalarial compounds. […] Last, 20 μl of each dilution was transferred into the ex vivo assay plate and diluted 10-fold into the final assay medium containing parasites. For the infected blood preparation, 5 ml of whole blood was centrifuged at 800g for 10 min, and the plasma and buffy coat were removed. […] Control assays on a 3D7 laboratory isolate were performed with medium supplemented with human serum (20%). The iRBC (180 μl per well) were distributed in the predosed drug plate. […] Control wells containing drug-free iRBCs were cultured with complete medium. The parasite-drug incubation was terminated when 40% of the ring stages reached the schizont stage (at least three distinct nuclei per parasite) in the drug-free control wells. Thick blood films were then made from each well, dried, stained with 5% Giemsa solution for 30 min, and examined microscopically. The number of schizonts per 200 asexual-stage parasites was determined for each drug concentration and then normalized by comparing with the schizont number in the drug-free control wells [considered as 100% ([64])]. The half-maximal drug inhibitory response (EC50) was estimated by curve fitting using software from the OriginLab Corporation, Northampton, MA, USA and comparing with parasite growth in the drug-free controls.

[4] = test system: P. falciparum clinical isolates from Tororo and Busia Districts of Uganda; test: Ex vivo 72-hour SYBR Green assay, Ugandan clinical isolates; format: cell-based, Plasmodium falciparum; conditions: Plasmodium falciparum
Text: Clinical isolates were from the Tororo District of Uganda, located in the central-eastern part of the county near the Kenya border. Tororo and surrounding areas have high-intensity, year-round malaria transmission. […] Patients reporting use of antimalarial treatment within the previous 30 days or with evidence of an infection with other Plasmodium species were excluded. Informed consent was obtained from patients and/or primary care givers (depending on age); children aged 8 to 17 years provided assent. Two to 5 ml of blood was collected by venipuncture in a heparin tube. Samples were delivered to the adjacent IDRC laboratory at Tororo District Hospital or transported by car from Masafu Hospital on the day of collections for storage of blood spots on filter paper (for isolation of nucleic acids) and initiation of ex vivo culture of malaria parasites. Treatment involved a standard therapeutic regimen for uncomplicated falciparum malaria, which was a 3-day course of the artemisinin-based combination therapy (ACT), artemether-lumefantrine. In Uganda, at the time of sampling, there was widespread resistance to the antifolate drugs due to mutant pfdhfr/pfdhps alleles. […] Chloroquine was prepared at 10 mM in water. Stock solutions were stored at −20°C. Working solutions were freshly prepared from a single aliquot within 4 hours of the susceptibility test and stored at 4°C.
(§1) Samples were delivered to the adjacent IDRC laboratory at Tororo District Hospital or transported by car from Masafu Hospital on the day of collection for storage of blood spots on filter paper (for isolation of nucleic acids) and initiation of ex vivo culture of malaria parasites. […] Before assay, 10 mM antimalarial stock compounds were diluted as necessary in DMSO and stored at −20°C. […] Compounds were serially diluted threefold in a 96-well assay plate in complete medium to a final volume of 50 μl, in columns 1 to 10, with concentrations optimized to capture full dose-response curves. Column 11 contained compound-free controls, while column 12 contained uninfected human RBC controls. Parasite culture (150 μl) was added to columns 1 to 11 of the assay plate with a final volume of 200 μl per well, 0.2% parasitemia, and 2% hematocrit. […] Thawed plates were incubated with SYBR Green lysis buffer for 1 hour in the dark as previously reported ([62]). Fluorescence was quantified using a BMG Fluostar Optima plate reader at an excitation of 485 nm and an emission of 530 nm, and data were plotted using GraphPad Prism 7. The data were curve fit with a variable slope function to estimate IC50 values. For each isolate, a Z′ factor to assess assay quality was calculated from positive controls (eight drug-free wells) and negative controls (eight parasite-free, red cell control wells). Z′ values over 0.5 were considered good assays, but each curve was also examined by eye for suitability. Some assays with Z′ below 0.5 may be considered valid depending on factors such as the SE of the curve-fit IC50.

[5] = test system: P. falciparum 3D7; test: Ex vivo 72-hour SYBR Green assay, 3D7 control (Uganda); format: cell-based, Plasmodium falciparum; conditions: Plasmodium falciparum, 3D7, read-out: EC50 lab strain 3D7
Procedure: as §1

[6] = test system: P. falciparum Dd2; test: Ex vivo 72-hour SYBR Green assay, Dd2 control (Uganda); format: cell-based, Plasmodium falciparum; conditions: Plasmodium falciparum, DD2, read-out: EC50 lab strain Dd2
Procedure: as §1

[7] = test system: P. falciparum Dd2-B2; test: 72-hour flow cytometry EC50 assay, Dd2-B2 parental line; format: cell-based, Plasmodium falciparum
Procedure: (§2) Stocks of SAL-0010003 (5-benzyl), SAL-0010355 (5-aryl), and SAL-0010419 (2-alkyl) were made at 10 and 1 mM in DMSO. Aliquots in use were stored at −20°C, and long-term storage was at −80°C. All in vitro studies were done such that the final DMSO concentration was <0.5%. P. falciparum ABS parasites were cultured at 3% hematocrit in human O+ RBCs in RPMI 1640 medium, supplemented with 25 mM Hepes, 50 mg L-hypoxanthine, 2 mM L-glutamine, 0.225% sodium bicarbonate, 0.5% (w/v) AlbuMAX II (Invitrogen) and gentamycin (10 μg/ml), in modular incubator chambers (Billups-Rothenberg) at 5% O2, 5% CO2, and 90% N2 at 37°C. Dd2-B2 (obtained from T. Wellems, National Institute of Allergy and Infectious Diseases, National Institutes of Health) is a genetically homogenous line that was cloned from Dd2 by limiting dilution. To define the EC50 and EC90 values of ABS parasites, Dd2-B2 ring-stage cultures at 0.2% parasitemia and 1% hematocrit were exposed for 72 hours to a range of 10 drug concentrations that were twofold serially diluted in duplicates along with drug-free controls. Parasite survival was assessed by flow cytometry on an iQue flow cytometer (Sartorius) using SYBR Green and MitoTracker Deep Red FM (Life Technologies) as nuclear stain and vital dyes, respectively. After determination of the EC50 and EC90 values for the three compounds with the P. falciparum Dd2-B2 clone, one single-step selection was set up using 2 × 10^5 parasites in each well of a 96-well plate at a starting concentration of 3× EC90. Parasites were cleared from the culture rapidly, and cultures were screened three times weekly by flow cytometry and counted as positive for recrudescence when the overall parasitemia reached 0.3% and the parasites were visible on a blood smear. DNA was extracted from recrudescent lines using a QIAGEN QIAamp Blood Mini Kit, and libraries were prepared with the Illumina DNA Prep kit for whole-genome sequencing on the Illumina MiSeq using a V3 2 × 300–base pair flow cell.

[8] = test system: P. falciparum Dd2-B2 lines selected under drug pressure; test: 72-hour flow cytometry EC50 assay, lines selected under drug pressure; format: cell-based, Plasmodium falciparum; conditions: for Mean fold change in EC50: selected lines vs Dd2-B2 parental line, ±SD
Procedure: Three examples of an additional compound series developed independently [NPD-2958, NPD-3518 ([31]), and NPD-3738; fig.
as §2

[9] = test system: HepG2 cells; test: HepG2 cytotoxicity; format: cell-based
Text: Table 1. Key activity data for the three main chemical subseries against ABS parasites, parasite fractions, and HepG2 cells. ND, not determined; ×/÷ is the geometric mean with geometric SD. | column: HepG2 EC50 (nM) (selectivity index)

[10] = read-out: EC50 clinical isolates, Gmean (geometric mean)
[11] = read-out: EC50 clinical isolates, Median
[12] = read-out: EC50 clinical isolates, Range
[13] = read-out: EC50 Dd2-B2 parental line
[14] = read-out: EC50, line selected with the same NPD compound, Well 1
[15] = read-out: EC50, line selected with the same NPD compound, Well 2
[16] = read-out: EC50, line selected with the same NPD compound, Well 3
[17] = read-out: EC50, line selected with the same NPD compound, Well 4

## CC(C)Cn1c(=O)n(C)c(=O)c2[nH]cnc21 [3-isobutyl-1-methylxanthine]
[1]
  IC50: > 100000 nM

## CCN(CC)CCCC(C)Nc1ccnc2cc(Cl)ccc12 (stereo not drawn) [Chloroquine, reference compound]
[2]; 10× EC50, 3D7
  Lag phase: 0 h
  PCT99.9% (hours taken to kill 99.9% of the parasites): 39.0 h
[2]
  Slope: −0.0717 ± 0.0037
[3]; read-out: EC50 range, clinical isolates
  EC50: 626 to 2600 nM
[3]; read-out: Median EC50, clinical isolates
  EC50: 1200 nM
[4]; [10]
  EC50: 13 nM
[4]; [11]
  EC50: 14 nM
[4]; [12]
  EC50: 2 to 25 nM
[5]
  EC50: 9.4 nM
[6]
  EC50: 347 nM

## CC(C)c1n[nH]c2c(=O)[nH]c(Cc3ccccc3Cl)nc12 [NPD-2958]
[7]; [13]
  EC50: 320 nM
[8]; [14]
  EC50: 2570 nM
[8]; [15]
  EC50: 3370 nM
[8]; [16]
  EC50: 2470 nM
[8]; [17]
  EC50: 2440 nM
[8]
  Mean fold change in EC50: 8.5 ± 1.4 fold
[8]; vs Dd2-B2
  EC50 shift, line selected with the same NPD compound, Well 1: 8.1 fold
  EC50 shift, line selected with the same NPD compound, Well 2: 10.5 fold
  EC50 shift, line selected with the same NPD compound, Well 3: 7.7 fold
  EC50 shift, line selected with the same NPD compound, Well 4: 7.6 fold

## CC(C)c1n[nH]c2c(=O)[nH]c(C3CCCCC3)nc12 [NPD-3518]
[7]; [13]
  EC50: 203 nM
[8]; [14]
  EC50: 2630 nM
[8]; [15]
  EC50: 2290 nM
[8]; [16]
  EC50: 2530 nM
[8]; [17]
  EC50: 2510 nM
[8]
  Mean fold change in EC50: 12.2 ± 0.7 fold
[8]; vs Dd2-B2
  EC50 shift, line selected with the same NPD compound, Well 1: 12.9 fold
  EC50 shift, line selected with the same NPD compound, Well 2: 11.2 fold
  EC50 shift, line selected with the same NPD compound, Well 3: 12.4 fold
  EC50 shift, line selected with the same NPD compound, Well 4: 12.4 fold

## CCc1nc(N)nc(N)c1-c1ccc(Cl)cc1 [Pyrimethamine, reference compound]
[2]; 10× EC50, 3D7
  Lag phase: 24 h
  Log PRR: 3.2
  PCT99.9% (hours taken to kill 99.9% of the parasites): 63.1 h
[2]
  Slope: −0.0667 ± 0.0059
[4]; [10]
  EC50: 41600 nM
[4]; [11]
  EC50: 39300 nM
[4]; [12]
  EC50: 15900 to 196000 nM
[4]; read-out: Geometric mean EC50, Ugandan isolates (Fig. 3B)
  EC50: 41600 nM
[5]
  EC50: 46 nM
[6]
  EC50: 21700 nM

## CC(C)COc1ccc(C(=O)N2CC(N(C)C)C2)cc1-c1nc2c(C(C)C)n[nH]c2c(=O)[nH]1 [SAL-0010355]
[9]; Homo sapiens, HepG2
  EC50: > 25000 nM
[9]; value in brackets after HepG2 EC50
  HepG2 selectivity index: 1,185
[7]; Plasmodium falciparum, DD2, read-out: EC50 Dd2-B2 parental line
  EC50: 69.2 nM
[8]; Plasmodium falciparum, DD2, read-out: EC50, line selected with SAL-0010355, Well B7
  EC50: 430 nM
[8]; Plasmodium falciparum, DD2, read-out: EC50, line selected with SAL-0010355, Well D7
  EC50: 468 nM
[8]; Plasmodium falciparum, DD2, read-out: EC50, line selected with SAL-0010355, Well D9
  EC50: 371 nM
[8]
  Mean fold change in EC50: 6.1 ± 0.7 fold
[8]; vs Dd2-B2
  EC50 shift, line selected with SAL-0010355, Well B7: 6.2 fold
  EC50 shift, line selected with SAL-0010355, Well D7: 6.8 fold
  EC50 shift, line selected with SAL-0010355, Well D9: 5.4 fold

## Cn1c(=O)c2c(ncn2C)n(C)c1=O [caffeine]
[1]
  IC50: > 100000 nM

## COc1ccc(C2CNC(=O)C2)cc1OC1CCCC1 (stereo not drawn) [rolipram]
[1]
  IC50: > 100000 nM

## Cn1c(=O)c2[nH]cnc2n(C)c1=O [theophylline]
[1]
  IC50: > 100000 nM
